Source: the NIST ThermoML archive (doi:10.1021/je050294+)

How the values were obtained:
[1] = xn = mol fraction of the nth substance listed; conditions: Liquid; for speed of sound: Linear variable-path acoustic interferometer; for mass density: Vibrating tube method
[2] = excess molar enthalpy (molar enthalpy of mixing); xn = mol fraction of the nth substance listed; conditions: 101 kPa, Liquid, Flow calorimetry

C=C1CCC2CC1C2(C)C (stereo not drawn) [β-pinene] + CCC(C)O
[1], 101.3 kPa
Conditions	mass density [kg/m3]	speed of sound [m/s]
283.15 K, x1 = 0.0526	820.26	1271.9
283.15 K, x1 = 0.1031	824.88	1276.6
283.15 K, x1 = 0.2058	833.37	1285.1
283.15 K, x1 = 0.3006	840.38	1292.5
283.15 K, x1 = 0.4019	847.14	1299.8
283.15 K, x1 = 0.5035	853.29	1307.2
283.15 K, x1 = 0.6023	858.87	1314.9
283.15 K, x1 = 0.7047	864.32	1323.5
283.15 K, x1 = 0.7995	869.14	1332.4
283.15 K, x1 = 0.8988	873.93	1342.4
283.15 K, x1 = 0.9401	875.92	1347
298.15 K, x1 = 0.0522	807.98	1216.6
298.15 K, x1 = 0.105	812.54	1220.2
298.15 K, x1 = 0.206	820.79	1227.3
298.15 K, x1 = 0.3006	827.65	1233.5
298.15 K, x1 = 0.3995	834.25	1240
298.15 K, x1 = 0.5017	840.58	1247.2
298.15 K, x1 = 0.6096	846.71	1255.5
298.15 K, x1 = 0.7011	851.61	1263
298.15 K, x1 = 0.8035	856.93	1272.5
298.15 K, x1 = 0.9067	862.02	1282.6
298.15 K, x1 = 0.9449	863.9	1287
313.15 K, x1 = 0.0526	794.95	1161.7
313.15 K, x1 = 0.0997	799.22	1164.1
313.15 K, x1 = 0.2028	807.25	1170.4
313.15 K, x1 = 0.2999	814.22	1175.7
313.15 K, x1 = 0.4043	821.27	1182.5
313.15 K, x1 = 0.5088	827.69	1189.9
313.15 K, x1 = 0.6027	833.19	1197
313.15 K, x1 = 0.6993	838.59	1205
313.15 K, x1 = 0.8035	844.16	1214.6
313.15 K, x1 = 0.896	848.93	1223.2
313.15 K, x1 = 0.9453	851.52	1228.7

excess molar enthalpy [kcal/mol], [2]
Conditions	283.15 K	298.15 K	313.15 K
x1 = 0.066	0.0306	0.0413	0.0397
x1 = 0.134	0.0629	0.087	0.0968
x1 = 0.259	0.111	0.152	0.179
x1 = 0.38	0.143	0.196	0.234
x1 = 0.489	0.164	0.223	0.2682
x1 = 0.581	0.172	0.232	0.2806
x1 = 0.677	0.169	0.227	0.2768
x1 = 0.765	0.155	0.208	0.257
x1 = 0.845	0.131	0.177	0.223
x1 = 0.927	0.0925	0.127	0.161
x1 = 0.963	0.0669	0.0903	0.112

C=C1CCC2CC1C2(C)C (stereo not drawn) [β-pinene] + CCCCO
[1], 101 kPa
Conditions	mass density [kg/m3]	speed of sound [m/s]
283.15 K, x1 = 0.0494	822.4	1295.8
283.15 K, x1 = 0.1023	827.32	1299.6
283.15 K, x1 = 0.204	835.8	1305.9
283.15 K, x1 = 0.3052	843.23	1311.7
283.15 K, x1 = 0.4007	849.5	1316.8
283.15 K, x1 = 0.5005	855.39	1321.9
283.15 K, x1 = 0.5929	–	1323.6
283.15 K, x1 = 0.695	865.44	1332
283.15 K, x1 = 0.7975	870.17	1338.1
283.15 K, x1 = 0.9009	874.7	1345.2
283.15 K, x1 = 0.9179	875.44	1347.3
298.15 K, x1 = 0.054	811.4	1243.7
298.15 K, x1 = 0.1027	815.79	1246.2
298.15 K, x1 = 0.1893	822.86	1250.3
298.15 K, x1 = 0.2992	830.92	1255.2
298.15 K, x1 = 0.4011	837.49	1259.4
298.15 K, x1 = 0.4987	843.18	1263.5
298.15 K, x1 = 0.6041	848.79	1268.1
298.15 K, x1 = 0.6946	853.25	1272.3
298.15 K, x1 = 0.7745	856.95	1276.6
298.15 K, x1 = 0.9003	862.46	1284.6
298.15 K, x1 = 0.9349	863.93	1287.4
313.15 K, x1 = 0.0493	799.21	1193.1
313.15 K, x1 = 0.1011	803.76	1194.6
313.15 K, x1 = 0.1988	811.57	1197.8
313.15 K, x1 = 0.3012	818.82	1201
313.15 K, x1 = 0.3998	825.01	1203.9
313.15 K, x1 = 0.5009	830.84	1207.3
313.15 K, x1 = 0.6003	836.12	1211.4
313.15 K, x1 = 0.7062	841.36	1216.2
313.15 K, x1 = 0.8017	845.7	1221.1
313.15 K, x1 = 0.8988	850.1	1227.1
313.15 K, x1 = 0.954	852.44	1231.4

excess molar enthalpy [kcal/mol], [2]
Conditions	283.15 K	298.15 K	313.15 K
x1 = 0.066	0.0117	0.0165	0.0213
x1 = 0.134	0.0253	0.0366	0.0468
x1 = 0.259	0.0514	0.0741	0.102
x1 = 0.371	0.0724	0.102	0.137
x1 = 0.489	0.0901	0.125	0.17
x1 = 0.591	0.101	0.138	0.186
x1 = 0.677	0.105	0.141	0.19
x1 = 0.765	0.0985	0.133	0.179
x1 = 0.856	0.0846	0.114	0.153
x1 = 0.927	0.0674	0.0889	0.116
x1 = 0.975	0.0435	0.0667	0.0786
